Data taken from patent US11932652B2, “Pyrrolidinyl urea derivatives and application thereof in TrkA-related diseases” (ZHANGZHOU PIEN TZE HUANG PHARMACEUTICAL CO., LTD., priority 2018, dated 2024).
pIC50: −log10 of the molar value.

Experiments:
plasma protein = assay: Plasma protein binding rate (PPB) test, SD rat plasma; type: in vitro ADME; details: 2 μM, dialysis 37° C. 4 hours
Protocol: The protein binding rates of the test compound in the plasma of humans, SD rats and Beagle dogs were determined.
796 μL of blank plasma from humans, SD rats and Beagle dogs (plasma purchased from BioreclamationIVT) were taken, 4 μL of working solution of the test compound (400 μM) or warfarin working solution (400 μM) was added and the final concentration of the test compound or warfarin was 2 μM. The sample was mixed thoroughly. The final concentration of organic phase DMSO was 0.5%; 50 μL of the plasma sample treated with the test compound or warfarin was pipetted into the sample receiving plate, and a corresponding volume of blank plasma or buffer was added immediately so that the final volume in each sample well was 100 μL, the volume ratio of plasma:dialysis buffer was 1:1; 400 μL of stop solution was added to these samples, and these samples were used as T0 samples for recovery and stability determination. To samples were stored at 2° C. to 8° C. for subsequent processing together with other dialyzed samples; 150 μL of the plasma sample treated with the test compound or warfarin was added into the dosing end of each dialysis hole, and 150 μL of blank dialysis buffer was added to the receiving end corresponding to the dialysis hole. Then the dialysis plate was sealed with gas-permeable membrane and placed in a humidified 5% CO2 incubator, and incubated at 37° C. with 100 rpm shaking for 4 hours. After the dialysis, 50 μL of the dialysis buffer sample and the dialysis plasma sample was transferred to a new sample receiving plate. […] All samples were analyzed by LC/MS/MS after protein precipitation, and the plasma protein unbound rate, binding rate and recovery rate was calculated according to the following formula: % unbound rate=100*free compound concentration at the membrane buffer side/total compound concentration at the membrane plasma side, % protein binding rate=100-% unbound rate, % recovery rate=100*(free compound concentration at the membrane buffer side+total compound concentration at the membrane plasma side)/total compound concentration before dialysis.

CYP3A4 = target: T1, CYP3A4 (Homo sapiens, UniProt P08684); assay: Cytochrome P450 isozyme inhibitory activity test, CYP3A4; type: in vitro ADME; details: heading: Cytochrome P450 isozyme IC50, CYP3A4; human liver microsome
T1 construct: from tissue; host or cells: human liver microsomes
Protocol: Determination of the inhibitory activity of the test compound on different human cytochrome P450 isozymes.
The test compound, standard inhibitor (100×final concentration), and a mixed substrate working solution were prepared; the microsome frozen in −80° C. refrigerator was thawed. 2 μL of the test compound and standard inhibitor solution was added to the corresponding wells, and at the same time 2 μL of the corresponding solvent was added to the non-inhibitor control wells (NIC) and blank control wells (Blank) wells; then 20 μL of mixed substrate solution was added to the corresponding wells, except for the Blank wells (20 μL of PB was added to the Blank wells); a human liver microsome solution was prepared (put back into the refrigerator immediately after using and marking the date), and then 158 μL of the human liver microsome solution was added to all wells; the above sample plate was placed in a 37° C. water bath for pre-incubation, then the coenzyme factor (NADPH) solution was prepared; 10 minutes later, 20 μL of the NADPH solution was added to all wells, and the sample plate was shaken well, placed in a 37° C. water bath and incubated for 10 minutes; at the corresponding time point, 400 μL of cold acetonitrile solution (internal standard: 200 ng/mL tolbutamide and labetalol) was added to terminate the reaction; the sample plate was evenly mixed, centrifuged at 4000 rpm for 20 minutes to precipitate proteins; 200 μL of the supernatant was added to 100 μL of water, shook well, and tested by LC/MS/MS.

[1] = In vivo pharmacokinetics in beagle dogs after single administration
Protocol: Male beagle dogs were used as test animals, the concentration of the compound in blood after single administration was determined to evaluate the pharmacokinetic behavior.
Beagle dogs (Male, 6-12 kg, more than 6 months, Beijing Marshall Biotechnology Co., Ltd.).
The objective of the test was to study the pharmacokinetic characteristics of the test compound in non-rodent after intravenous injection and oral administration. In the experiment, the test compound was prepared into a clear solution or homogeneous suspension and administered to the beagle dogs by single intravenous injection or oral administration. In the intravenous injection group, the menstruum was a certain proportion of dimethyl sulfoxide in HP-β-cyclodextrin solution or a certain proportion of ethanol, polyethylene glycol 400 and physiological saline solution, the mixture was vortexed and subjected to ultrasonic treatment to prepare 2 mg/mL or […] clear solution, then filtered with microporous membrane for later use; in the oral administration group, the menstruum was a certain proportion of dimethyl sulfoxide in HP-β-cyclodextrin solution or a certain proportion of sodium carboxymethyl cellulose solution, the test compound was mixed with the menstruum, vortexed and subjected to ultrasonic treatment to prepare 2 mg/mL clear solution or 1 mg/mL homogeneous suspension for later use. After 2 mg/kg or 1 mg/kg intravenous administration or 10 mg/kg or 5 mg/kg oral administration to the Beagle dogs, a certain amount of whole blood samples were collected, centrifuged at 3000 g for 10 minutes, and the supernatant was separated to obtain plasma samples; then an acetonitrile solution containing internal standard with a volume 10 times that of the plasma sample was added to precipitate proteins, and then centrifuged; the supernatant was separated for analysis; LC-MS/MS analysis method was used to quantitatively analyze the blood drug concentration, and Phoenix WinNonlin software (Pharsight, USA) was used to calculate the pharmacokinetic parameters, such as peak concentration, time to peak concentration, clearance rate, half-life, area under the concentration-time curve, bioavailability, etc.
Among them, C0 is the initial concentration, T1/2 is the elimination half-life, Vdss is the steady-state apparent volume of distribution, Cl is the total clearance rate, AUC0-inf is the area under the plasma drug concentration-time curve from time 0 to infinity, Cmax is the peak concentration, Tmax is the time to peak concentration.

[2] = male, beagle, dog, plasma, 10 mg/kg, dogs, 10 mpk oral administration

T1 sequence (P08684 whole entry): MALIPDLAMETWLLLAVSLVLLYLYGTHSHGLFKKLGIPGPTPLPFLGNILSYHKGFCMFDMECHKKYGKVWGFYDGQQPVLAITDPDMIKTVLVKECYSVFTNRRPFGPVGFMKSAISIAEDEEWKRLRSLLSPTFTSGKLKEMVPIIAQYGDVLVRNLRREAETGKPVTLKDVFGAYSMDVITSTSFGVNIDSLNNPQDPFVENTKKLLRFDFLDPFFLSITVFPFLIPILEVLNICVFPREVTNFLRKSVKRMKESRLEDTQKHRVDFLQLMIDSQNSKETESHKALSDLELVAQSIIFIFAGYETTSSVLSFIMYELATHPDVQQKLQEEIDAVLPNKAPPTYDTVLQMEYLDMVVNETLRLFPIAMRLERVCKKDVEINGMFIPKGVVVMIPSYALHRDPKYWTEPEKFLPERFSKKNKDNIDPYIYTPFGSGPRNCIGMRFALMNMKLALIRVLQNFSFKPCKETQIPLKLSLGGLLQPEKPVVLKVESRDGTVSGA

Q: Which “Plasma protein unbound rate, SD Rat plasma” value (plasma protein) does the source give for `COCCN1C[C@@H](n2ccc(F)c2)[C@H](NC(=O)Nc2c(C)c(-c3cnc(C4(F)COC4)nc3)nn2-c2ccccc2)C1` [Compound 7] here?
A: The value was 7.1%.

Q: And the pIC50 (CYP3A4)?
A: The pIC50 was less than 4.30.

Q: What about the “pharmacokinetic properties and oral bioavailability (in words)” value ([1]; in beagle dogs) of the same molecule?
A: The value was “good pharmacokinetic properties and oral bioavailability”.

Q: And the AUC(0-inf) [1, 2]?
A: The AUC(0-inf) was 7.69 µM·h.

Q: What about the Cmax [1, 2] of the same molecule?
A: The Cmax was 3.95 µM.

Q: And the Tmax [1, 2]?
A: The Tmax was 0.63 h.

Q: And the bioavailability [1, 2]?
A: The bioavailability was 33%.

Q: And the half-life [1, 2]?
A: The half-life was 2.2 h.
